Measured values: patent publication US9486507B2, “Pro-coagulant compounds and methods of use thereof” (priority 2011, dated 2016)
Values joined by “and” are separate entries in the source; they are usually repeats but may differ in a detail not shown here. Identical values can stand only once.

Experiments:
Type in all cases: biochemical
[1] = molecular target: T1, FVIIa (Homo sapiens, UniProt P08709); assay: FXa generation assay with human FVIIa; settings: absence of PL
T1 construct: The two-chain Factor VIIa is a polypeptide produced from FVII by hydrolysis of the Arg152-Ile153 peptide bond of FVII; purchased Haematologic Technologies
T1 sequence (P08709 61-212 limits assumed): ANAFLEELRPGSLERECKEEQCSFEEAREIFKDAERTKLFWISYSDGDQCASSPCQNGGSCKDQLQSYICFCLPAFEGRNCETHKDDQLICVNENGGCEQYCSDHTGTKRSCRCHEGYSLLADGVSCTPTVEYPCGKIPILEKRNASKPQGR
T1 sequence (P08709 213-466 limits assumed): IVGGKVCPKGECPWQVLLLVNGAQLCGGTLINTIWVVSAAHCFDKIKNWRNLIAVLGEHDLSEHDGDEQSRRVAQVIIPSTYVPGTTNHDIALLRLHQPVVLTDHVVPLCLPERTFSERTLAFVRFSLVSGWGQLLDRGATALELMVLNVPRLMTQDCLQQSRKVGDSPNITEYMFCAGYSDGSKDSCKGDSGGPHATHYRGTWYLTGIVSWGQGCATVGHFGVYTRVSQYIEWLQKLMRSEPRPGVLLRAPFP
Protocol: (§1) Similarly, in order to measure the catalytic activity of FVIIa, a FXa generation assay measuring the ability of the compounds of the present disclosure to enhance the catalytic activity of FVIIa was established. The difference between the two assays was that the final concentration of 10 nM hFIXa was replaced with 10 nM hFVIIa. The remaining reagents and assay procedures described above were unchanged.

[2] = molecular target: T1, FVIIa; assay: Km/Kcat of FVIIa for the substrate FX (FXa generation assay); settings: presence vs absence of compound 5
Protocol: as §1
To determine the Km and Kcat of FIXa or FVIIa for the substrate FX, the FXa generation assay described above was used with the following modifications. A single peptide concentration was tested (typically one that gave the maximal rate of FXa generation) and the concentration of all assay components was similar to that described above with the exception of FX. Reactions were set up with varying concentrations of FX ranging between 400 and 0.8 nM and the rates of FXa generation were determined for each peptide at the different FX concentrations tested as described above. For each peptide assayed, the data were fitted to the following equation that gives the Michaelis-Menten constant (Km) and the Vmax for FIXa or FVIIa: v=Vmax [FX]/Km+[FX], wherein v is the rate of FXa generation determined as described above. The catalytic constant (Kcat) was calculated by normalizing the Vmax to the enzyme concentration.

[3] = tested on: FVIII deficient human plasma; assay: Thrombin generation assay (TGA) in FVIII-deficient plasma; settings: for Thrombin Above Baseline (nM): HRF FVIII-deficient plasma (1)
[4] = tested on: purified recombinant human coagulation factors; assay: Thrombin generation assay using purified hemostatic components
From the text: Purified recombinant human coagulation factors V, XI, II, X, IX, VII, VIIa, recombinant tissue factor and antithrombin III (ATIII) were obtained from Haematologic Technologies (Essex Junction, Vt., USA). Lyophilized platelets were from Helena Laboratorires (Beaumont, Tex.); TFPI was from American Diagnostica.

[5] = molecular target: T2, FXa or the prothrombinase complex (Homo sapiens, UniProt P00742); assay: FXa / prothrombinase activity in purified thrombin generation assay; settings: 1 μM; FXa 0.05 ug/mL, with or without FV
T2 construct: Under these conditions FIXa cleaves the zymogen FX into the active form FXa
T2 sequence (P00742 41-179 limits assumed): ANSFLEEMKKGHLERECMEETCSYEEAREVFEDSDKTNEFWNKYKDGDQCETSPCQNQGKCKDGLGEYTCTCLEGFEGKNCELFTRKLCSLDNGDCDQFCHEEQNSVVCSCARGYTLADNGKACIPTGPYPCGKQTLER
T2 sequence (P00742 235-488 limits assumed): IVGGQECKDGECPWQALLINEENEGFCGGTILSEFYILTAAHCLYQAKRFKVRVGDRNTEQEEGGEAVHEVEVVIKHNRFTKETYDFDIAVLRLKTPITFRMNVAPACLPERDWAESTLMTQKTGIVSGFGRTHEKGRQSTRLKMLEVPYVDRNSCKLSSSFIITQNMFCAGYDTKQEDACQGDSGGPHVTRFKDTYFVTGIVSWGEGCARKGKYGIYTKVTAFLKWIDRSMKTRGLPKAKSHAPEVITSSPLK
Protocol: In another experiment it was determined whether or not the compounds of the present disclosure directly enhance the activity of FXa or the prothrombinase complex.

[6] = molecular target: α-thrombin (Homo sapiens, UniProt P00734); assay: Fibrin generation assay (thrombin activity); settings: compound 5 1 uM; α-thrombin 0 or 0.1 IU/mL
Protocol: The generation of fibrin was determined by measuring the absorbance at OD405 with the Biotek Synergy 2 multi-detection microplate reader.

[7] = tested on: FIX-deficient human plasma; assay: ROTEM in FIX-deficient human plasma
Protocol: Compounds of the present disclosure were tested by rotational thromboelastometry to evaluate coagulation parameters such as clotting time (CT), α-angle, clot formation time (CFT), maximum clot firmness (MCF). Briefly, lyophilized and citrated FVIII deficient human plasma (Siemens) was reconstituted with 1 mL of distilled water, allowed to stand for 20 min at RT and mixed well before use. Alternatively, an aliquot of citrated (non-lyophilized) FVIII deficient human plasma (HRF, George King, Precision Biologics, or real-time donors) was thawed for 10 min in a 37° C. water bath and when needed centrifuged at 2800 g for 5 min at 25° C. FVIII deficient plasma was spiked with lyophilized platelets (Helena Laboratories, final concentration 0.5×10^8 cells/ml) and compounds, FVIII, or both compound and FVIII. Dilutions of compounds of the present disclosure and controls, such as FVIII, were prepared in PBS (—Ca, —Mg). Next, 300 μl of the spiked plasma was transferred to a ROTEM cup already containing 20 μl of StarTEM (concentrated calcium chloride solution) and 20 μl of lipidated TF (American Diagnostica, final concentration 10 fM) or Kaolin (Sigma-Aldrich, final concentration 0.4 μg/ml) and recording was initiated. The cups were maintained at 37° C. during the testing.

[8] = tested on: canine FVIII-deficient plasma; assay: ROTEM in canine FVIII-deficient plasma; settings: canine HemA plasma, lyophilized human platelets, 10 fM lipTF
[9] = molecular target: FIXa (Homo sapiens, UniProt P00740); assay: Km/Kcat of FIXa for the substrate FX (FXa generation assay); design: purchased Haematologic Technologies
Chain of FIXa (P00740 47-191 limits assumed): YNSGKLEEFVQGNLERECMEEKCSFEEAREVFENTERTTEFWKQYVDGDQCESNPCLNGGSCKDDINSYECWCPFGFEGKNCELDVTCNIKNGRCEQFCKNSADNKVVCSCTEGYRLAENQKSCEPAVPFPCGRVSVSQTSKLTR
Chain of FIXa (P00740 227-461 limits assumed): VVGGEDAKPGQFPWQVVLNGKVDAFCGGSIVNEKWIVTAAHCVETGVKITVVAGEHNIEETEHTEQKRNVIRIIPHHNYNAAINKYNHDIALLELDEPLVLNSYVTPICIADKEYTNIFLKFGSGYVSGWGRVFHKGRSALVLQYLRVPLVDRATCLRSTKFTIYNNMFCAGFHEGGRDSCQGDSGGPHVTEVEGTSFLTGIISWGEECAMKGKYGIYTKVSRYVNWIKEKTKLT
Protocol: To determine the Km and Kcat of FIXa or FVIIa for the substrate FX, the FXa generation assay described above was used with the following modifications. […] Reactions were set up with varying concentrations of FX ranging between 400 and 0.8 nM and the rates of FXa generation were determined for each peptide at the different FX concentrations tested as described above. […] The catalytic constant (Kcat) was calculated by normalizing the Vmax to the enzyme concentration.
FIXa was used at 10 nM, and FX was used at 10-1000 nM. The assay was performed in the presence of phospholipids (PL) and calcium chloride.

[10] = FIX-deficient plasma (containing platelets), 10 μM
[11] = FIX-deficient plasma, compound 5 2.5 μM + FIX-Fc 0.25 IU/mL
[12] = human HemB plasma, lyophilized platelets, 10 fM TF, 5 μM
[13] = human HemB plasma, lyophilized platelets, 10 fM TF, 10 μM
[14] = human HemB plasma, 5 μM, anti-FIX pab +
[15] = human HemB plasma, 5 μM, anti-FIX pab −
[16] = human HemB plasma, 10 μM, anti-FIX pab −
[17] = hFIXa 10 nM, FX 10-1000 nM, PL, CaCl2, compound 1 3 μM, compounds 3, 4, 5 1 μM, compound C 10 μM

rRAPGKLTCLASYCWLFWTGIA [Compound 5] was tested, and the “increase of FVIIa activity, % of control” value [1] was “about 10%”, the “Δ kcat FVIIa” value [2] was 2419 and the “additive effect with FVIII on thrombin generation” value ([3]; 0.1 pM lipidated TF, low amounts of rFVIII (FIG. 2)) was “shows additive thrombin generation activity with FVIII”. The “amount of thrombin generated, as rFVIII equivalent” value ([3]; 10 μM compound 5, 0.1 pM lipTF) was “about 0.2 IU/mL”, the “amount of thrombin generated, compared with FVIII” value ([3]; 5 or 10 μM compound 5, 0.1 pM lipTF) was over 0.1 U/mL and the “Thrombin Above Baseline (nM)” value ([3]; 2.5 μM) was “+ (1-10 nM (1) or 1-29 nM (2) (+))”. The “Thrombin Above Baseline (nM)” value ([3]; 5 μM) was “+ (1-10 nM (1) or 1-29 nM (2) (+))”, the “Thrombin Above Baseline (nM)” value ([3]; 10 μM) was “++ (11-20 nM (1) or 30-59 nM (2) (++))” and the “Thrombin Above Baseline (nM)” value ([3]; 20 μM) was “++ (11-20 nM (1) or 30-59 nM (2) (++))”. For the same substance, the lag time ([3]; compound 5 at 10 μM and 5 μM, 0.1 pM lipTF (FIG. 3)) was “shorter lag time than 0.1 or 0.25 U/mL of FVIII”, the “thrombin generation, FXIa dependence” value ([4]; compound 5 1 μM, 0, 50% or 100% FXIa (FIG. 8)) was “dependent on the FXIa concentration” and the “thrombin generation, FIXa dependence” value ([4]; compound 5 1 μM, 1%, 10% or 100% (3.1 μg/mL) FIXa (FIG. 7)) was “dependent on the FIXa concentration”. The “thrombin generation without FIX/FIXa” value ([4]; compound 5 1 μM, FVII, FVIIa, TF, FV, FX, FII, ATIII, TFPI, platelets) was “enhanced thrombin generation in the absence of FIX/FIXa”, the “thrombin generation, dose dependence” value ([4]; compound 5 at 1 nM, 10 nM, 100 nM, 1 μM, 2 μM (FIG. 6)) was “enhances thrombin generation in a dose-dependent manner” and the thrombin generation ([4]; compounds 1 μM, FVIII 0.1 or 1 IU/mL (FIG. 5)) was “induce thrombin generation”. The “catalytic activity of FXa or the prothrombinase complex” value [5] was “did not substantially increase the catalytic activity of FXa or the prothrombinase complex”, the “catalytic activity of thrombin (fibrin generation, OD405)” value [6] was “did not substantially increase the catalytic activity of thrombin directly” and the “Clotting time, sec” value [7, 10] was 1,311 sec and 1,328 sec. The “α-angle, degrees” value [7, 10] was 15 degrees and 19 degrees, the Clotting time [7, 11] was 876.5 s and the α-angle [7, 11] was 39.5 degrees. For the same substance, the “Clotting time” value [7, 12] was 836 s and 810 s, the “α-angle, degrees” value [7, 12] was 24 degrees and 20 degrees and the “Clotting time” value [7, 13] was 804 s and 773 s. The “α-angle, degrees” value [7, 13] was 22 degrees and 21 degrees, the “Clotting time, sec” value [7, 14] was 1,660 sec and 1,661 sec and the “α-angle, degrees” value [7, 14] was 9 degrees. For the same substance, the “Clotting time, sec” value [7, 15] was 1,420 sec and 1,556 sec, the “α-angle, degrees” value [7, 15] was 11 degrees and 12 degrees and the “α-angle, degrees” value ([7]; human HemB plasma, 10 μM, anti-FIX pab +) was 13 degrees and 10 degrees. The “Clotting time, sec” value [7, 16] was 1,182 sec and 1,194 sec, the “α-angle, degrees” value [7, 16] was 12; 12 degrees and the “Clotting time” value ([8]; 0.625 μM) was 687 s and 539 s. The “α-angle, degrees” value ([8]; 0.625 μM) was 12 degrees, the “Clotting time” value ([8]; 2.5 μM) was 346 s and 356 s and the “α-angle, degrees” value ([8]; 2.5 μM) was 15; 15 degrees. For the same substance, the “Clotting time” value ([8]; 5 μM) was 295 s and 369 s, the “α-angle, degrees” value ([8]; 5 μM) was 29 degrees and 28 degrees and the “Clotting time” value ([8]; 10 μM) was 286 s and 294 s. The “α-angle, degrees” value ([8]; 10 μM) was 58 degrees and 57 degrees, the Km [9, 17] was 11 ± 2.3 nM and the kcat [9, 17] was 0.0179 min⁻¹. The “Δ kcat FIXa” value ([9]; presence vs absence of compound 5) was 199 and the Δ kcat ([9]; relative to buffer (1.0), compound 1 3 μM, compounds 3, 4, 5 1 μM, compound C 10 μM) was 199.
